# Laboratory results taken from US12011447B2, “Pharmaceutical composition for treating thyroid cancer comprising tyrosine kinase activity inhibitor as active ingredient” (Kyungpook National University Industry-Academic Cooperation …, priority 2017, dated 2024).
# What was measured:
# [1] = system: anaplastic thyroid cancer xenograft (8505C-PNIS-PCMV); assay: Tumor growth inhibition in xenograft mice (tumor size, R-luc BLI); type: in vivo, Balb/c nude mice; conditions: single agent administration
# Method: Female Balb/c nude mice, 5.5-week old with an average weight of 18.9±0.37 g (mean±standard deviation [SD]), were purchased (Hamamatsu, Shizuoka, Japan). The mice were acclimated under specific pathogen-free conditions for one week before starting the experiment, and were maintained at a temperature of 20 to 25° C. and a relative humidity of 40 to 70%. To establish anaplastic thyroid cancer xenograft mouse models, 8505C-PNIS-PCMV s (5×10^6) were mixed with Matrigel (Corning) at a ratio of 1:1 and injected subcutaneously into the right flank region of each mouse.
# In addition, in order to evaluate the effect of TKI-0266 administration on the treatment of thyroid cancer, mice for use in the experiment were divided into four groups (n=5): the vehicle group; the ^131I-administered group (injected intraperitoneally with 1 mCi Na-^131I on day 2 of the experiment; the TKI-0266-administered group (injected intraperitoneally with 50 mg/kg of TKI-0266 for 5 days); and the group co-administered with ^131I and TKI-0266 (injected intraperitoneally with 50 mg/kg of TKI-0266 for 5 days, and injected intravenously with 1 mCi Na-^131I on day 2; n=5). To measure the degree of tumor growth, h-coelenterazine (15 μg/ml) was administered to the mice by intravenous injection, and then the R-luc activity was monitored by BLI every 5 days.
# 8505C cells = assay: In vitro 125I uptake assay; type: cell-based, human; conditions: anaplastic thyroid cancer cells
# Method: 8505C cells (1.25×10^5) were seeded and incubated in a 24-well plate for 24 hours, and then treated with TKI-0266 and further incubated for 24 hours. Thereafter, the medium was removed, and the cells were washed with bHBSS (Hank's balanced salt solution containing 0.5% BSA). The cells were incubated with 500 μl of bHBSS, 3.7 kBq carrier-free ^125I (Perkin-Elmer), and 10 μmol/L sodium iodide (specific activity of 740 MBq/mmol) at 37° C. for 30 minutes. Thereafter, the cells were washed twice with cold bHBSS and lysed by adding 500 μL of 2% SDS solution thereto. Radioactivity was measured using a Cobra II gamma-counter (Canberra Packard, Canada). The ^125I uptake values were normalized by comparing the amount of total protein determined by BCA protein assay kit.
Compound,tumor size on days 6 and 11 [1],iodine uptake on treatment with NIS inhibitor (8505C cells)
"[131I-].[Na+] [^131I, Na-^131I, reference compound]",continuous increase,
"[K+].[O-][Cl+3]([O-])([O-])[O-] [KCIO4, reference compound]",,completely blocked
